molecular target: T1, tissue plasminogen activator (t-PA) (Homo sapiens, UniProt P00750); experiment: Serine protease inhibition, t-PA (chromogenic substrate), Kass; assay type: biochemical; conditions: substrate H-D-Ile-Pro-Arg-p-nitroanilide
T1 construct: purchased American Diagnostics, Greenwich, Conn
Experimental: (§1) The assay is carried out by mixing 50 μl buffer (0.03M Tris, 0.15M NaCl, pH 7.4), 25 μl of human thrombin solution (purified human thrombin Enzyme Research Laboratories, South Bend, Ind.) at 8 NIH units/ml and 25 μl of test compound in a solvent (50% aqueous methanol (v:v)). Then 150 μl of an aqueous solution of the chromogenic substrate (at 0.25 mg/ml) are added and the rates of hydrolysis of the substrate are measured by monitoring the reactions at 405 nm for the release of p-nitroaniline. Standard curves are constructed by plotting free thrombin concentration against hydrolysis rate. The hydrolysis rates observed with test compounds are then converted to "free thrombin" values in the respective assays by use of the standard curves. The bound thrombin (bound to test compound) is calculated by subtracting the amount of free thrombin observed in each assay from the known initial amount of thrombin used in the assay. The amount of free inhibitor in each assay is calculated by subtracting the number of moles of bound thrombin from the number of moles of added inhibitor (test compound).
(§2) Kass is calculated for a range of concentrations of test compounds and the mean value is reported in units of liter per mole.
(§3) By substantially following the procedures described above for human thrombin, and using other human blood coagulation system serine proteases, and using fibrinolytic system serine proteases, with the appropriate chromogenic substrate, identified below, selectivity of the compounds of the present invention with respect to the coagulation factor serine proteases and to the fibrinolytic serine proteases are evaluated as well as their substantial lack of interference with human plasma clot fibrinolysis.
(§4) Human factors X, Xa, IXa, XIa, and xIIa are purchased from Enzyme Research Laboratories, South Bend, Ind.; human urokinase from Leo Pharmaceuticals, Denmark; and recombinant activated Protein C (aPC) is prepared at Eli Lilly and Co. substantially according to U.S. Pat. No. 4,981,952 incorporated by reference herein in its entirety. Chromogenic substrates: N-Benzoyl-Ile-Glu-Gly-Arg-p-nitroanilide (for factor Xa); N-Cbz-D-Arg-Gly-Arg-p-nitroanilide (for factor IXa assay as the factor Xa substrate) pyroglutamyl-Pro-Arg-p-nitroanilide (for factor XIa and for aPC); H-D-Pro-Phe-Arg-p-nitroanilide (for factor XIIa); and pyroglutamyl-Gly-Arg-p-nitroanilide (for urokinase); are purchased from KabiVitrum, Stockholm, Sweden, or from Midwest Biotech, Fishers, Indiana. Bovine trypsin is purchased from Worthington Biochemicals, Freehold, N.J., and human plasma kallikrein from Kabi Vitrum, Stockholm, Sweden. N-Benzoyl-Phe-Val-Arg-p-nitroanilide, the substrate for human thrombin and for trypsin, is synthesized according to procedures described above for the compounds of the present invention, known methods of peptide coupling from commercially available reactants, or was purchased from Midwest Biotech, Fishers, Ind. Human plasmin is purchased from Boehringer Mannheim, Indianapolis, Ind.; nt-PA is purchased as single chain activity reference from American Diagnostics, Greenwich, Conn.; modified-t-PA6 (mt-PA6) is prepared at Eli Lilly and Company by procedure known in the art (See, Burck, et al., J. Biol. Chem., 265, […] (1990). Plasmin chromogenic substrate H-D-Val-Leu-Lys-p-nitroanilide and tissue plasminegen activator (t-PA) substrate H-D-Ile-Pro-Arg-p-nitroanilide are purchased from Kabi Vitrum, Stockholm, Sweden.

T1 sequence (P00750 36-562): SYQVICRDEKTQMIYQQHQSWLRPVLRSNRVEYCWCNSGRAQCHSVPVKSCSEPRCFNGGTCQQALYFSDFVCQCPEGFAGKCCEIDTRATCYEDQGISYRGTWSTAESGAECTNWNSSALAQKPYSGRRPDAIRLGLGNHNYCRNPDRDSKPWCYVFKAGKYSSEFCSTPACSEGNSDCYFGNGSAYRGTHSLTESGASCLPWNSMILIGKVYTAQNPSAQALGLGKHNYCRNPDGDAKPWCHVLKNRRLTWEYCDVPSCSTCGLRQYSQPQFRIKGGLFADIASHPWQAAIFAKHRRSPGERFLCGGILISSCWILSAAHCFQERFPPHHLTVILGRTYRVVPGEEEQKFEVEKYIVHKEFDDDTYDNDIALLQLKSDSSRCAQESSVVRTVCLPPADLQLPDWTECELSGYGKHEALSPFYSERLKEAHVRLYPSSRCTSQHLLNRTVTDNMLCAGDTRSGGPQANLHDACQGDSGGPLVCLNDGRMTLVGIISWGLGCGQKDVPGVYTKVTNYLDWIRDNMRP

SMILES | Enzyme Kass, t-Pa
CCS(=O)(=O)N[C@H](Cc1ccccc1)C(=O)N1CCC[C@H]1C(=O)N[C@H](C=O)CCCNC(=N)N.Cl [Example 8, EtSO2 -D-Phe-Pro-Arg-H-HCl] | 2.9 L/mol × 10^6
CCCS(=O)(=O)N[C@H](Cc1ccccc1)C(=O)N1CCC[C@H]1C(=O)N[C@H](C=O)CCCNC(=N)N.Cl [Example 9, n-Pr-SO2 -D-Phe-Pro-Arg-H.HCl] | 2.8 L/mol × 10^6

molecular target: T2, Bovine trypsin (Bos taurus, UniProt P00760); experiment: Serine protease inhibition, trypsin (chromogenic substrate), Kass; assay type: biochemical; conditions: substrate N-Benzoyl-Phe-Val-Arg-p-nitroanilide
T2 construct: Bovine trypsin is purchased from Worthington Biochemicals, Freehold, N.J; purchased Worthington Biochemicals, Freehold, N.J
T2 sequence (P00760 24-246): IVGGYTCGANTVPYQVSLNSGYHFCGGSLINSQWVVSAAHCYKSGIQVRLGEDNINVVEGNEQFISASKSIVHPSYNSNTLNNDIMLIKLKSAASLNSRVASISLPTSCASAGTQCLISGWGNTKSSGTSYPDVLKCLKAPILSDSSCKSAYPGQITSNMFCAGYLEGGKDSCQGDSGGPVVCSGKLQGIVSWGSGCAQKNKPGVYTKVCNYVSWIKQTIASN
Experimental: as §1, §2, §3, §4

SMILES | Enzyme Kass, Trypsin
CCS(=O)(=O)N[C@H](Cc1ccccc1)C(=O)N1CCC[C@H]1C(=O)N[C@H](C=O)CCCNC(=N)N.Cl [Example 8, EtSO2 -D-Phe-Pro-Arg-H-HCl] | 260 L/mol × 10^6
CCCS(=O)(=O)N[C@H](Cc1ccccc1)C(=O)N1CCC[C@H]1C(=O)N[C@H](C=O)CCCNC(=N)N.Cl [Example 9, n-Pr-SO2 -D-Phe-Pro-Arg-H.HCl] | 480 L/mol × 10^6

molecular target: T3, human thrombin (Homo sapiens, UniProt P00734); experiment: Inhibition of amidase activity of thrombin (chromogenic substrate), Kass; assay type: biochemical; conditions: substrate N-benzoyl-Phe-Val-Arg-p-nitroanilide, pH 7.4
T3 construct: purified human thrombin Enzyme Research Laboratories, South Bend, Ind; purchased Enzyme Research Laboratories, South Bend, Ind
Experimental: as §1
The Kass value is the hypothetical equilibrium constant for the reaction between thrombin and the test compound (I). [drawing 53]
as §2

SMILES | Enzyme Kass, Human Thrombin
CCS(=O)(=O)N[C@H](Cc1ccccc1)C(=O)N1CCC[C@H]1C(=O)N[C@H](C=O)CCCNC(=N)N.Cl [Example 8, EtSO2 -D-Phe-Pro-Arg-H-HCl] | 450 L/mol × 10^6
CCCS(=O)(=O)N[C@H](Cc1ccccc1)C(=O)N1CCC[C@H]1C(=O)N[C@H](C=O)CCCNC(=N)N.Cl [Example 9, n-Pr-SO2 -D-Phe-Pro-Arg-H.HCl] | 1,700 L/mol × 10^6

molecular target: T4, Human plasmin (Homo sapiens, UniProt P00747); experiment: Serine protease inhibition, plasmin (chromogenic substrate), Kass; assay type: biochemical; conditions: substrate H-D-Val-Leu-Lys-p-nitroanilide
T4 construct: Human plasmin is purchased from Boehringer Mannheim, Indianapolis, Ind; purchased Boehringer Mannheim, Indianapolis, Ind
T4 sequence (P00747 581-810 limits assumed): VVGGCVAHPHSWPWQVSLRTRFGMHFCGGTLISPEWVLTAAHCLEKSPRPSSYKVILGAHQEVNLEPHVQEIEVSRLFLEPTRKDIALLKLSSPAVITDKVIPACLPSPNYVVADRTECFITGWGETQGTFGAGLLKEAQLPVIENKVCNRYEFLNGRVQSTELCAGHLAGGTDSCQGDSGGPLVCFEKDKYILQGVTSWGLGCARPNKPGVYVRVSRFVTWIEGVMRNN
T4 sequence (P00747 97-580 partner limits assumed): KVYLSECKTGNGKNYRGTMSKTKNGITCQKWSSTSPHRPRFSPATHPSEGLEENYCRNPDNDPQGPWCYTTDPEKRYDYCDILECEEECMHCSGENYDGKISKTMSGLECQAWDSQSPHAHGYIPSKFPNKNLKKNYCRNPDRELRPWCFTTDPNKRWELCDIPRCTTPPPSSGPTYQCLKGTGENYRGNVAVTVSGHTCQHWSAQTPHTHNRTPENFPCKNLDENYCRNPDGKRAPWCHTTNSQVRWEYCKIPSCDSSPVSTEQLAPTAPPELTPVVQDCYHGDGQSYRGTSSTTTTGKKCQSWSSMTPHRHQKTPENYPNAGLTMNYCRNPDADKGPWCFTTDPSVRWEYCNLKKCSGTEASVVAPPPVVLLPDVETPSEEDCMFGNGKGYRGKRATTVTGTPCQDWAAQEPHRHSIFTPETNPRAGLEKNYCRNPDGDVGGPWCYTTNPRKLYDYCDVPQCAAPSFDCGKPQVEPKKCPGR
Experimental: as §1, §2, §3, §4

SMILES | Enzyme Kass, Plasmin
CCS(=O)(=O)N[C@H](Cc1ccccc1)C(=O)N1CCC[C@H]1C(=O)N[C@H](C=O)CCCNC(=N)N.Cl [Example 8, EtSO2 -D-Phe-Pro-Arg-H-HCl] | 31 L/mol × 10^6
CCCS(=O)(=O)N[C@H](Cc1ccccc1)C(=O)N1CCC[C@H]1C(=O)N[C@H](C=O)CCCNC(=N)N.Cl [Example 9, n-Pr-SO2 -D-Phe-Pro-Arg-H.HCl] | 29 L/mol × 10^6

molecular target: T5, factor Xa (Homo sapiens, UniProt P00742); experiment: Serine protease inhibition, factor Xa (chromogenic substrate), Kass; assay type: biochemical; conditions: substrate N-Benzoyl-Ile-Glu-Gly-Arg-p-nitroanilide
T5 construct: Human factors X, Xa, IXa, XIa, and xIIa are purchased from Enzyme Research Laboratories; purchased Enzyme Research Laboratories, South Bend, Ind
T5 sequence (P00742 235-488 limits assumed): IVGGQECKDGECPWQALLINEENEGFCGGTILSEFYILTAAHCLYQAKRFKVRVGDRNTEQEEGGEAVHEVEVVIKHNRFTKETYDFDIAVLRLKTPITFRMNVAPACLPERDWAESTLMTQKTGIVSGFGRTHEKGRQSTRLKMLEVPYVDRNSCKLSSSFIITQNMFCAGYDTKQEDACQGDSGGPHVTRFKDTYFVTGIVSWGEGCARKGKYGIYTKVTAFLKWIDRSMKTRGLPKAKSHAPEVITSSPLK
T5 sequence (P00742 41-179 partner limits assumed): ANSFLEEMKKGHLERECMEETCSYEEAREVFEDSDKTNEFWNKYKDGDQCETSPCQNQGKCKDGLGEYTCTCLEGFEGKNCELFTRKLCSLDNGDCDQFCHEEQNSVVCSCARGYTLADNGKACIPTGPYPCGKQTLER
Experimental: as §1, §2, §3, §4

SMILES | Enzyme Kass, Xa
CCS(=O)(=O)N[C@H](Cc1ccccc1)C(=O)N1CCC[C@H]1C(=O)N[C@H](C=O)CCCNC(=N)N.Cl [Example 8, EtSO2 -D-Phe-Pro-Arg-H-HCl] | 2.6 L/mol × 10^6
CCCS(=O)(=O)N[C@H](Cc1ccccc1)C(=O)N1CCC[C@H]1C(=O)N[C@H](C=O)CCCNC(=N)N.Cl [Example 9, n-Pr-SO2 -D-Phe-Pro-Arg-H.HCl] | 13 L/mol × 10^6

test system: Human Plasma; experiment: Anticoagulation in human plasma, thrombin time (TT); assay type: biochemical; conditions: concentration required to double the thrombin time
Experimental: (§5) Dog plasma and rat plasma are obtained from conscious mixed-breed hounds (either sex, Hazelton-LRE, Kalamazoo, Mich., U.S.A.) or from anesthetized male Sprague-Dawley rats (Harlan Sprague-Dawley, Inc., Indianapolis, Ind., U.S.A.) by venipuncture into 3.8 percent citrate. Fibrinogen is prepared from in-date ACD human blood as the fraction I-2 according to previous procedures and specifications. Smith, Biochem. Chem. […] Human fibrinogen is also purchased as 98 percent pure/plasmin free from American Diagnostics, Greenwich, Conn. Coagulation reagents ACTIN, Thromboplastin, and Human plasma are from Baxter Healthcare Corp., Dade Division, Miami, Fla. Bovine thrombin from Parke-Davis (Ann Arbor, Mich.) is used for coagulation assays in plasma. Coagulation assay procedures are as previously described. Smith, et al., Thrombosis Research, 5, 163-174 (1988). A CoAScreener coagulation instrument (American LABor, Inc.) is used for all coagulation assay measurements. The prothrombin time (PT) is measured by adding 0.05 ml saline and 0.05 ml Thromboplastin-C reagent to 0.05 ml test plasma. The activated partial thromboplastin time (APTT) is measured by incubation of 0.05 ml test plasma with 0.05 ml Actin reagent for 120 seconds followed by 0.05 ml CaCl2 (0.02M). […] The compounds of formula I are added to human or animal plasma over a wide range of concentrations to determine prolongation effects on the APTT, PT, and TT assays. Linear extrapolations are performed to estimate the concentrations required to double the clotting time for each assay.

SMILES | 2 × Clotting time, TT
CCS(=O)(=O)N[C@H](Cc1ccccc1)C(=O)N1CCC[C@H]1C(=O)N[C@H](C=O)CCCNC(=N)N.Cl [Example 8, EtSO2 -D-Phe-Pro-Arg-H-HCl] | 9 ng/mL
CCCS(=O)(=O)N[C@H](Cc1ccccc1)C(=O)N1CCC[C@H]1C(=O)N[C@H](C=O)CCCNC(=N)N.Cl [Example 9, n-Pr-SO2 -D-Phe-Pro-Arg-H.HCl] | 6 ng/mL

test system: Human Plasma; experiment: Anticoagulation in human plasma, prothrombin time (PT); assay type: biochemical; conditions: concentration required to double the PT
Experimental: as §5

SMILES | 2 × Clotting time, PT
CCS(=O)(=O)N[C@H](Cc1ccccc1)C(=O)N1CCC[C@H]1C(=O)N[C@H](C=O)CCCNC(=N)N.Cl [Example 8, EtSO2 -D-Phe-Pro-Arg-H-HCl] | 660 ng/mL
CCCS(=O)(=O)N[C@H](Cc1ccccc1)C(=O)N1CCC[C@H]1C(=O)N[C@H](C=O)CCCNC(=N)N.Cl [Example 9, n-Pr-SO2 -D-Phe-Pro-Arg-H.HCl] | 510 ng/mL

test system: not listed separately; experiment: Index of bioavailability (plasma TT AUC, p.o. vs i.v.); conditions: rats, adjusted for dose

SMILES | Index of Bioavailability, % Relative Activity
CCS(=O)(=O)N[C@H](Cc1ccccc1)C(=O)N1CCC[C@H]1C(=O)N[C@H](C=O)CCCNC(=N)N.Cl [Example 8, EtSO2 -D-Phe-Pro-Arg-H-HCl] | 31%
CCCS(=O)(=O)N[C@H](Cc1ccccc1)C(=O)N1CCC[C@H]1C(=O)N[C@H](C=O)CCCNC(=N)N.Cl [Example 9, n-Pr-SO2 -D-Phe-Pro-Arg-H.HCl] | 14%

test system: Human Plasma; experiment: Anticoagulation in human plasma, activated partial thromboplastin time (APTT); assay type: biochemical; conditions: concentration required to double the APTT
Experimental: as §5

SMILES | 2 × Clotting time, APTT
CCS(=O)(=O)N[C@H](Cc1ccccc1)C(=O)N1CCC[C@H]1C(=O)N[C@H](C=O)CCCNC(=N)N.Cl [Example 8, EtSO2 -D-Phe-Pro-Arg-H-HCl] | 260 ng/mL
CCCS(=O)(=O)N[C@H](Cc1ccccc1)C(=O)N1CCC[C@H]1C(=O)N[C@H](C=O)CCCNC(=N)N.Cl [Example 9, n-Pr-SO2 -D-Phe-Pro-Arg-H.HCl] | 220 ng/mL

From patent publication US5602101A, “Antithrombotic agents” (priority 1994, dated 1997)
